# Measurements: patent publication US11510962B2, “Manufacture of degarelix” (Ferring B.V., priority 2012, dated 2022)
# Square brackets hold non-standard residues; d marks the D form. Peptide text beside a SMILES is read from it. * marks the point of attachment. dPhe(4-NHCONH2) = NC(=O)Nc1ccc(C[C@@H](N)C(=O)O)cc1; Dihydroorotyl(S) = O=C1C[C@@H](C(=O)*)NC(=O)N1; dPhe(4-Cl) = N[C@H](Cc1ccc(Cl)cc1)C(=O)O; Phe(4-NH2) = Nc1ccc(C[C@H](N)C(=O)O)cc1; d2Nal = N[C@H](Cc1ccc2ccccc2c1)C(=O)O; Lys(iPr) = CC(C)NCCCC[C@H](N)C(=O)O; d3Pal = N[C@H](Cc1cccnc1)C(=O)O
# Experiments:
# [1] = De-aggregation experiments with acetic acid: viscosity of degarelix stock solution; type: physicochemical
# Protocol: Determination of the viscosity of the drug substance and drug product solution is based on the current edition of Ph. Eur. and USP procedure using a rotating viscometer equipped with a cone-plate measuring system with D=60 mm and 1°. The shear rate is increased from 0 to 500 s in 20 steps, using a controlled rate (CR) rotation step program at a constant temperature of 20±0.2° C., making certain that the system reaches equilibrium before the viscosity is recorded at a shear rate of 500 s^−1. During the de-aggregation studies the temperature was set to 5, 20, 25, or 35° C. The concentration of degarelix drug substance was 5, 15, 25, or 35 mg/ml. The concentration of acetic acid is 13, 15, 18, 20, 22, 26, 30, 35 or 40%. Viscosity: Take out 1.2 ml at T=1, 60, 120, and 240 min. De-aggregation Experiment Protocol, total volume 20 or 69 ml: • 1. Weigh the required amount of stock solution into a beaker. Equilibrate to the desired temperature • 2. Weigh the required amount of acetic acid (100%) into a beaker • 3. Mix the acetic acid (100%) with 3 or 10 ml of milli-Q water and equilibrate to the desired temperature • 4. Mix the degarelix stock solution with the acetic acid/milli-Q water solution • 5. Fill milli-Q water up to 20 or 69 ml • 6. Mix thoroughly • 7. Take samples for viscosity and optical density as described above. Note the appearance of the solution during the experiment
# [2] = target: GnRH receptors in the pituitary (Homo sapiens, UniProt P30968); conditions: prostate cancer patients; literature; cited from earlier work
# [3] = De-aggregation experiments with acetic acid: final optical density; type: physicochemical
# Protocol: During the de-aggregation studies the temperature was set to 5, 20, 25, or 35° C. The concentration of degarelix drug substance was 5, 15, 25, or 35 mg/ml. The concentration of acetic acid is 13, 15, 18, 20, 22, 26, 30, 35 or 40%. Optical Density (OD): A sample (1 ml) should be taken at the end of each experiment for measurement of the final optical density. De-aggregation Experiment Protocol, total volume 20 or 69 ml: • 1. Weigh the required amount of stock solution into a beaker. Equilibrate to the desired temperature • 2. Weigh the required amount of acetic acid (100%) into a beaker • 3. Mix the acetic acid (100%) with 3 or 10 ml of milli-Q water and equilibrate to the desired temperature • 4. Mix the degarelix stock solution with the acetic acid/milli-Q water solution • 5. Fill milli-Q water up to 20 or 69 ml • 6. Mix thoroughly • 7. Take samples for viscosity and optical density as described above. Note the appearance of the solution during the experiment
# [4] = in vivo
# [5] = In-vitro release profile (IVD assay) of degarelix vials reconstituted with WFI+Tween 20; type: physicochemical; conditions: 40 mg/ml degarelix; Tween 20 at 1, 0.5, 0.25 mg/ml; control WFI
# Protocol: Tween 20 concentrations tested:
# 1 mg/ml; 0.5 mg/ml; 0.25 mg/ml;
# [6] = Reconstitution of degarelix vials with WFI/surfactant solution: OD (absorbance) at 350 nm; type: physicochemical; conditions: vials reconstituted to 60 mg/ml degarelix, surfactant 1 mg/ml (0.1%) in WFI, 30 min, 60 min, 120 min, 24 hours
# Protocol: Procedure: • Degarelix batch reconstituted using WFI (as control) and using WFI containing the surfactants. The vials are reconstituted to 60 mg/ml degarelix.
# [7] = 5 °C, degarelix 5 mg/ml, AcOH 40%
# [8] = 5 °C, degarelix 25 mg/ml, AcOH 13%
# [9] = 5 °C, degarelix 25 mg/ml, AcOH 15%
# [10] = 5 °C, degarelix 25 mg/ml, AcOH 20%
# [11] = 5 °C, degarelix 35 mg/ml, AcOH 26%
# [12] = 20 °C, degarelix 15 mg/ml, AcOH 30%
# [13] = 25 °C, degarelix 25 mg/ml, AcOH 20%
# [14] = 35 °C, degarelix 25 mg/ml, AcOH 15%
# [15] = 35 °C, degarelix 25 mg/ml, AcOH 18%
# [16] = 35 °C, degarelix 25 mg/ml, AcOH 20%
# [17] = 35 °C, degarelix 35 mg/ml, AcOH 22%
# [18] = 35 °C, degarelix 35 mg/ml, AcOH 26%
# [19] = 35 °C, degarelix 35 mg/ml, AcOH 30%
# [20] = 35 °C, degarelix 35 mg/ml, AcOH 35%
# Sequence of GnRH receptors in the pituitary (P30968 whole entry): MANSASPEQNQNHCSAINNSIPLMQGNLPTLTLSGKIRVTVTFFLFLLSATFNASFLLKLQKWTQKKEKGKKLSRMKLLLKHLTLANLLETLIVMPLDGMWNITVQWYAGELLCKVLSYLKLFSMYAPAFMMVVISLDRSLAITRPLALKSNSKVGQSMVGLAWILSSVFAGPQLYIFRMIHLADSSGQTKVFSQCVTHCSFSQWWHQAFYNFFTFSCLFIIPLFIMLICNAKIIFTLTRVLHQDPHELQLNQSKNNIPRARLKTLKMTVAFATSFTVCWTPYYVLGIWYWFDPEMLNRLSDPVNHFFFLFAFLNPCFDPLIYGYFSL
compound,measurement,setting,value
"CC(=O)N[C@H](Cc1ccc2ccccc2c1)C(=O)N[C@H](Cc1ccc(Cl)cc1)C(=O)N[C@H](Cc1cccnc1)C(=O)N[C@@H](CO)C(=O)N[C@@H](Cc1ccc(NC(=O)[C@@H]2CC(=O)NC(=O)N2)cc1)C(=O)N[C@H](Cc1ccc(NC(N)=O)cc1)C(=O)N[C@@H](CC(C)C)C(=O)N[C@@H](CCCCNC(C)C)C(=O)N1CCC[C@H]1C(=O)N[C@H](C)C(N)=O [Degarelix, D-Alaninamide, N-acetyl-3-(2-naphthalenyl)-D-alanyl-4-chloro-D-phenylaanyl-3-(3-pyridinyl)-D-alanyl-L-seryl-4-[[[(4S)-hexahydro-2,6-dioxo-4-pyrimidinyl]carbonyl]amino]-L-phenylalanyl-4-[(aminocarbonyl)amino]-D-phenylaanyl-L-leucyl-N6-(1-methylethyl)-L-lysyl-L-prolyl-] (Ac-[d2Nal][dPhe(4-Cl)][d3Pal]S[Phe(4-NH2)](Dihydroorotyl(S))[dPhe(4-NHCONH2)]L[Lys(iPr)]P[dA]-NH2)",Viscosity @ 500 Time = 240 min,[1]; [7],1.9 mPas * s
same,Viscosity @ 500 Time = 240 min,[1]; [8],2.3 mPas * s
same,Viscosity @ 500 Time = 240 min,[1]; [9],1.9 mPas * s
same,Viscosity @ 500 Time = 240 min,[1]; [10],1.7 mPas * s
same,Viscosity @ 500 Time = 240 min,[1]; [11],1.9 mPas * s
same,Viscosity @ 500 Time = 240 min,[1]; [12],1.8 mPas * s
same,Viscosity @ 500 Time = 240 min,[1]; [13],2.0 mPas * s
same,Viscosity @ 500 Time = 240 min,[1]; [14],7.2 mPas * s
same,Viscosity @ 500 Time = 240 min,[1]; [15],2.1 mPas * s
same,Viscosity @ 500 Time = 240 min,[1]; [16],1.7 mPas * s
same,Viscosity @ 500 Time = 240 min,[1]; [17],2.1 mPas * s
same,Viscosity @ 500 Time = 240 min,[1]; [18],1.9 mPas * s
same,Viscosity @ 500 Time = 240 min,[1]; [19],2.0 mPas * s
same,Viscosity @ 500 Time = 240 min,[1]; [20],2.1 mPas * s
same,testosterone surge or clinical flare,[2],does not cause testosterone surge or clinical flare
same,Optical Density Time = 240 min,[3]; [7],0.00
same,Optical Density Time = 240 min,[3]; [8],0.10
same,Optical Density Time = 240 min,[3]; [9],0.09
same,Optical Density Time = 240 min,[3]; [10],0.06
same,Optical Density Time = 240 min,[3]; [11],0.08
same,Optical Density Time = 240 min,[3]; [12],0.03
same,Optical Density Time = 240 min,[3]; [13],0.10
same,Optical Density Time = 240 min,[3]; [14],0.86
same,Optical Density Time = 240 min,[3]; [15],0.07
same,Optical Density Time = 240 min,[3]; [16],0.05
same,Optical Density Time = 240 min,[3]; [17],0.13
same,Optical Density Time = 240 min,[3]; [18],0.10
same,Optical Density Time = 240 min,[3]; [19],0.07
same,Optical Density Time = 240 min,[3]; [20],0.08
same,sustained release from the depot,[4],sustained release of the active over months
Polysorbate 20 [Tween 20],in-vitro release profiles,[5],not altered
same,optical density versus control,[6],reduced the optical density to a level below the control
